Experimental data as given in patent publication US20170246166A1, “1,2-BENZOTHIAZOLE COMPOUNDS FOR THE TREATMENT OF KIDNEY DISORDERS” (priority 2014, published 2017).

Assays:
[1] = tested on: db/db mice; test: Efficacy animal model of diabetic nephropathy (albuminuria, uninephrectomized db/db mice); assay type: in vivo, mouse; conditions: oral gavage twice a day
Text: The purpose of this assay is to analyze compound efficacy in a mouse model of diabetic nephropathy. The earliest clinical manifestation of diabetic nephropathy is albuminuria, leakage of albumin in the urine. Because diabetic nephropathy can be present without any symptoms, early diagnosis is critical so that treatment can be started. The key test for early diagnosis of diabetic nephropathy involves checking for the presence of albuminuria. Thus, if a compound reduces albumin levels in the urine in a diabetic patient, it would likely indicate efficacy of the compound in the treatment of diabetic nephropathy. To model diabetic nephropathy, a combination of genetically driven type 2 diabetes and uninephrectomy is utilized. Six week-old db/db mice (genetic strain: C57 BL KsJ, ChemPartner, Shanghai) receive standard rodent chow and water ad libitum. The left kidney is removed under anesthesia with 0.6% sodium pentobarbital at 60 mg/kg body weight (10 μL/g i.p.). Seven days after surgery, urine is collected for 24 h in a metabolic cage to measure albuminuria levels and blood is collected by tail snip to determine glucose levels. For compound treatment, the animals are randomized based on 24-h albuminuria, blood glucose, and body weight. A test compound is dissolved in 4% DMSO (aqueous) and administered twice a day by oral gavage. […] During the treatment period, albuminuria is analyzed monthly. […]

[2] = tested on: PKC; test: PKC in vivo target inhibition assay (pleckstrin phosphorylation in blood cells); set-up: species or system mouse; conditions: male ICR mice, oral gavage, 2 h after treatment
Procedure: The purpose of this assay is to evaluate the effects of in vivo administration of a test compound on PKC substrate phosphorylation in blood cells.
Pleckstrin is one of the PKC protein substrates and is primarily expressed in platelets and peripheral blood mononuclear cells (PBMC). Pleckstrin phosphorylation is proportional to PKC activity. The phosphorylation state of the pleckstrin protein in purified platelets and PBMC from mouse blood is analyzed via Western blotting using a primary antibody specific for phosphorylated PKC substrates. This antibody recognizes multiple phosphorylated PKC substrates that include, but are not limited to p-pleckstrin. The p-pleckstrin band is identified based on its molecular weight.
Male ICR mice (Charles River) are dosed by oral gavage with a test compound homogenized in 1% hydroxethylcellulose/0.25% TWEEN® 80, at a concentration range of 0.3-3 mg/mL, depending on dose; thus dosing volume is 10 ml/kg body weight. Staurosporine, dissolved in the same vehicle, may be used as a positive control to verify that the assay is functioning. […]
10% SDS-PAGE is conducted on the cell lysates (30 μg protein loaded per lane), with 130 V for 90 min. […] Intensity of near-infrared fluorescence is proportional to the level of PKC substrate phosphorylation. It is quantitated with ODYSSEY® software. […]

In the case of C[C@@H]1CN(C(=O)c2cc(-c3c(F)cc(O)cc3F)cc3cnsc23)C[C@H](C)N1.Cl [Example 2, 4-(7-{[(3R,5 S)-3,5-DIMETHYLPIPERAZIN-1-YL]CARBONYL}-1,2-BENZOTHIAZOL-5-YL)-3,5-DIFLUOROPHENOL HYDROCHLORIDE], the ED50 ([1]; Mus musculus, uninephrectomized db/db mice, read-out: ED50, reduction of albuminuria) is reported as about 25.3 mg/kg, the “actual mean levels of albumin in the urine (collected during 24 hours)” value ([1]; db/db mice, dose of 30 mg/kg) is reported as 85.0 ± 6.9 µg and the “ID50, pleckstrin phosphorylation, PBMCs” value ([2]; PBMCs) is reported as “about 18.03 mg/kg”. For the same compound, the “ID50, pleckstrin phosphorylation, platelets” value ([2]; platelets) was “about 11.85 mg/kg”.
